Source: US11110079B2, “Mebendazole polymorph for treatment and prevention of tumors” (THE JOHNS HOPKINS UNIVERSITY, priority 2015, dated 2021)

Key:
[1] = human; cited from earlier work
[2] = mice; cited from earlier work
[3] = tested on: D425 medulloblastoma; experiment: Orthotopic D425 medulloblastoma xenograft model (survival); format: in vivo, mouse; details: orthotopic D425 medulloblastoma xenograft; MBZ-C 50 mg/kg five days a week, elacridar 50 mg/kg 7 days
Method: The intracranial implantation of GL261-luc in the frontal lobe and D425 cells in the cerebellum of the mouse brain followed the procedure described before (3,4). Five days after tumor implantation, mice were gavaged with MBZ or the other benzimidazoles at 50 mg/kg five days a week. MBZ and other benzimidazoles were prepared by either mixing the power with PBS and sesame oil (1:1, v:v) (Sigma) or by grinding the tablets to powder and resuspending in the aforementioned PBS/sesame oil mixture. Elacridar was prepared as a 10 mg/ml suspension in 0.5% hydroxypropylmethylcellulose and 0.5% Tween 80 in PBS similarly as described before (15).

[4] = tested on: glioma and medulloblastoma cell lines; details: tissue culture; cited from earlier work
[5] = tested on: HT29; experiment: HT29 colon cancer flank xenograft; format: in vivo, Nude mice
Method: (§1) FIGS. 9A-9E. […] Two human colorectal carcinoma cell lines, HT29 and SW480, were implanted subcutaneously into the flanks of Nude mice and treated for four weeks with 50 mg/kg MBZ by oral gavage. Tumor volumes were measured twice weekly, averaged, and plotted over the course of the experiment. HT29 xenograft (FIG. 9A) and SW480 xenograft (B) growth inhibitory curves. Resected flank tumors from each group were weighed at the end of the experiment and compared to untreated control (FIG. 9C, FIG. 9D) Paraffin-embedded flank tumor tissues were stained for Ki67 proliferation marker. […] Five randomly selected fields from each slide were quantified as the percent Ki67-positive cell×100/total number of cells and represent the mean+SEM of five animals. *, P<0.05.

[6] = in vivo; details: mouse
Method: Female C57BL6 mice, 5-6 weeks of age, were purchased from NCl. Animal experimentation was conducted under an approved IACUC protocol and complied with local and national guidelines. All MBZ polymorphs and tablets were administered by oral gavage at a dose of 50 mg/kg. Elacridar was administered by oral gavage at 50 mg/kg 2 hours prior to the administration of MBZ-C. Mice (3 animals/time point) were first anesthetized via intraperitoneal injection of 60 μl of a stock solution containing ketamine hydrochloride (75 mg/kg) (100 mg/ml; Ketamine HCl; Abbot Laboratories, Chicago, Ill., USA) and xylazine (7.5 mg/kg) (100 mg/ml; Xyla-ject®, Phoenix Pharmaceutical, St. Joseph, Mo., USA) in a sterile 0.9% NaCl solution. Then the blood samples were taken by puncturing and aspiring from the left heart ventricle. Blood samples were mixed with 5 mM EDTA and centrifuged at 10000 g for 5 min to obtain the plasma for further analysis.
For brain distribution studies, mice were perfused under anesthesia with 20 ml ice-cold saline supplemented with 20 μl of 0.02% heparin by injecting slowly into the left heart ventricle using a 20 gauge needle. The right atrium was cut open before to allow the blood outflow. The yellow color of kidney indicated a good perfusion quality that was essential to deplete blood from the brain tissue. In GL261 tumor-bearing mice, GL261 tumor was distinguished from the normal brain by easily recognizable differences in color and shade. GL261 tumor was separated with a scalpel and the normal brain tissue was cut from the contralateral hemisphere. All brain samples were weighed and stored at −80° C. before processing.
Blood, brain and brain tumor tissues were harvested as a function of time after MBZ administration. To compare the pharmacokinetics of MBZ polymorphs, three cohorts of mice each were administered a single dose of 50 mg/kg by oral gavage. For the initial comparison studies, plasma samples were obtained at 1, 2.5, 4, 6, 8, 15, and 24 hours after MBZ administration while brain tissue was only collected at 6 hours. For the comparison studies of polymorph C with or without ELD, plasma and brain tissue samples were obtained at 2.5, 4, and 8 hours after MBZ administration. Brain tumor tissue samples were also obtained for polymorph C alone.
MBZ and the two metabolites, 2-amino-5-benzoyl-benzimidazole (MBZ-NH2, CAS 52329-60-9) and rac dihydro mebendazole (MBZ-OH, CAS 60254-95-7), were quantified in plasma, brain and brain tumor tissue. Tissue homogenates were prepared at a concentration of 200 mg/ml in plasma prior to extraction. Mebendazole and metabolites were extracted from 50 μl of plasma or tissue homogenates with 0.1 ml of methanol containing 0.5 μg/ml of the internal standard A620223.69. After centrifugation, the supernatant (60 μl) was mixed with water (40 μl) and then transferred into autosampler vials. […] The analytes were monitored using an AB Sciex triple quadrapole™ 5500 mass-spectrometric detector (Applied Biosystems, Foster City, Calif., USA) using electrospray ionization operating in positive mode. The spectrometer was programmed to allow the [MH+] ions of MBZ, MBZ-NH2, MBZ-OH, and A620223.69 at m/z 296.0, 238.0, 298.0, and 287.2, respectively to pass through the first quadrupole (Q1) and into the collision cell (Q2). The daughter ions for MBZ (m/z 263.9), MBZ-NH2 (m/z 105.1), MBZ-OH (m/z 266.0), and A620223.69 (m/z 124.1) were monitored through the third quadrupole (Q3). Calibration curves for MBZ and metabolites were computed using the area ratio peak of the analysis to the internal standard by using a quadratic equation with a 1/x weighting function over the range of 5 to 500 ng/ml (MBZ) and 1 to 500 ng/ml (metabolites) with dilutions of up to 1:100 (v:v). If one or more concentrations were below limits of quantification, a value of ½ the limit of quantification was assigned for pharmacokinetic calculations.

[7] = tested on: GL261-luc glioma; details: GL261, single agent 50 mg/kg; control 29.5 days
Method: All animal studies were approved by the Animal Care and Use Committee (ACUC) of the Johns Hopkins University. The intracranial implantation of GL261-luc in the frontal lobe and D425 cells in the cerebellum of the mouse brain followed the procedure described before (3,4). […] MBZ and other benzimidazoles were prepared by either mixing the power with PBS and sesame oil (1:1, v:v) (Sigma) or by grinding the tablets to powder and resuspending in the aforementioned PBS/sesame oil mixture. Elacridar was prepared as a 10 mg/ml suspension in 0.5% hydroxypropylmethylcellulose and 0.5% Tween 80 in PBS similarly as described before (15).
Animal survival data were analyzed by GraphPad Prism 5.0. The p-values were determined by a Mantel-Cox test. A p-value under 0.05 was accepted as statistically significant.

[8] = tested on: polyps in the intestine of APC min/+ mice; experiment: APC min/+ mouse chemoprevention study (intestinal polyps); format: in vivo
Method: The average number of polyps for each treatment group were graphed for the proximal, middle and distal small intestines and colon (FIG. 11A). Individual polyps were measured and categorized based on size. The average number of polyps for Sulindac versus the combiniation of MBZ+Sulindac were analyzed separately for each section of the intestine (FIG. 11B).

[9] = tested on: SW480; experiment: SW480 colon cancer flank xenograft; format: in vivo, Nude mice
Method: as §1

Compound | cerebrospinal fluid (CSF)/plasma ratio [1] | B/P ratio [2] | median survival [3] | IC50 [4] | Ki67 proliferation marker staining ([5]; HT29 flank tumor tissue) | c-myc and Bcl-2 protein expression ([5]; HT29 flank xenograft lysates) | tumor growth and proliferation ([5]; HT29 xenograft, 50 mg/kg MBZ oral gavage four weeks) | effect of ELD on average B/P ratios of MBZ [6] | distribution in GL261 brain tumor vs contralateral normal brain tissue ([6]; po, 50 mg/kg) | median survival [7] | formation, occurrence and size of polyps [8] | Ki67 proliferation marker staining ([9]; SW480 flank tumor tissue) | c-myc and Bcl-2 protein expression ([9]; SW480 flank xenograft lysates) | tumor growth and proliferation ([9]; SW480 xenograft, 50 mg/kg MBZ oral gavage four weeks)
Cn1nnc2c(C(N)=O)ncn2c1=O [temozolomide] | 0.2 | 0.408 |  |  |  |  |  |  |  |  |  |  |  | 
COC(=O)Nc1nc2ccc(C(=O)c3ccccc3)cc2[nH]1 [MBZ, Mebendazole] |  |  | 53 days | 110 to 1000 nM | significantly less positive | reduction of these proteins in most cases | inhibits growth and proliferation | elevated | did not differ significantly | 53 days | reduces the formation of polyps | significantly less positive | reduction of these proteins in most cases | inhibits growth and proliferation
